{"source": "patent US20110269788A1", "about": "“SPIRO-OXINDOLE-DERIVATIVES AS SODIUM CHANNEL BLOCKERS” (Xenon Pharmaceuticals Inc., priority 2008, published 2011)", "key": {"[1]": {"tested_on": "sodium channel", "assay_type": "cell-based, human or rat", "details": "known cell line that expresses a sodium channel"}, "[2]": {"molecular_target": "T1, CYP3A4 (Homo sapiens, UniProt P08684)", "T1 construct": "purchased Invitrogen Corporation Vivid CYP450 Screening Kit (catalogue number not given)", "T1 sequence (P08684 whole entry)": "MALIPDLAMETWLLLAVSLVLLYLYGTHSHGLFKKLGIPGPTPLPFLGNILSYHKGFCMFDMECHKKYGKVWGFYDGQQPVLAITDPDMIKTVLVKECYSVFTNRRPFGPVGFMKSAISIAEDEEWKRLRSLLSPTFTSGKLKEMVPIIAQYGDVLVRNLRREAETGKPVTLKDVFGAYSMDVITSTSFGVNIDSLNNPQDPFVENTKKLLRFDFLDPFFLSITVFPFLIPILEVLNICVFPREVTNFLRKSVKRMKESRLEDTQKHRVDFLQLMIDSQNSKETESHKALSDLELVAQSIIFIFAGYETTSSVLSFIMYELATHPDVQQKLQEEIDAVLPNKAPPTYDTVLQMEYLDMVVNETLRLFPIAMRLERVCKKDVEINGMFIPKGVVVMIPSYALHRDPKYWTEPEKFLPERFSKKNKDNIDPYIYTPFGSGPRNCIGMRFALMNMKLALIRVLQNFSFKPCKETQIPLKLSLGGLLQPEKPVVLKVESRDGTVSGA", "experiment": "Cytochrome P450 (CYP450) inhibition assay, Vivid fluorescence, CYP3A4", "assay_type": "in vitro ADME", "details": "P450 Baculosomes (CYP3A4), probe Vivid substrate (fluorogenic, not named)"}, "[3]": {"molecular_target": "CYP2C19 (Homo sapiens, UniProt P33261)", "sequence (P33261 whole entry, canonical isoform)": "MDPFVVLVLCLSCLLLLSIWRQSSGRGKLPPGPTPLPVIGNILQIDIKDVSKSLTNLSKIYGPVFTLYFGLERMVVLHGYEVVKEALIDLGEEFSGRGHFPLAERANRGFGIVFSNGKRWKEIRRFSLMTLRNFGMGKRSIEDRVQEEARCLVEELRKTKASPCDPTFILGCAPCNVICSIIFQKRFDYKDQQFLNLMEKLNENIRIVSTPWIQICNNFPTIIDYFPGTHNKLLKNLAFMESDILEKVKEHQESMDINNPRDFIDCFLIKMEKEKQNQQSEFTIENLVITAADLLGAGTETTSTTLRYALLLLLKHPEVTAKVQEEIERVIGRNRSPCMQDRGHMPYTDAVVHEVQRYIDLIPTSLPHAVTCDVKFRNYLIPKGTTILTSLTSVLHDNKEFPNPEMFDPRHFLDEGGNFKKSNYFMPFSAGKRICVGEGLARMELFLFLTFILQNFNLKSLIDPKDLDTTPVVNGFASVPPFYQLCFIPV", "experiment": "in vitro", "from_the_text": "(§1) CYP450 (CYP) is a designation for a superfamily of enzymes. Each family consists of one or more subfamilies and each subfamily contains one or more specific CYP isoforms. The Cytochrome P450 (CYP450) Inhibition Assay is a fluorescence-based assay using a cytochrome CYP isozyme for screening of compounds of the invention to determine the level of CYP inhibition by a specific compound. The assay is based on the CYP inhibition kit described by Vivid CYP450 Screening Kit Protocol, 2005, Invitrogen Corporation (Invitrogen Corporation, 1600 Faraday Avenue, Carlsbad, Calif. 92008, USA).\n(§2) This assay is designed to assess compounds by quantifying the inhibition of the predominant human CYP isozymes involved in hepatic drug metabolism. […] The standard method for evaluating specific CYP isozyme inhibition is to determine the conversion rate of a probe substrate into its metabolite, in the presence and absence of the potential inhibitor. Quantification of the metabolite is achieved by HPLC or by using a probe substrate (Table 3) that is metabolized into a fluorescent product (fluorescent assay).\n(§3) This assay can be used for single concentration screening or for IC50 determination. In a single concentration screening assay, the final assay concentration of the test compound is 10 μM. In an IC50 determination assay, IC50 may be determined using a 3, 6, or 12 point curve in triplicate with a chosen starting concentration diluted serially.\n(§4) In the Preparation Stage, the test compounds, controls (acetonitrile (ACN) or Dimethyl sulfoxide (DMSO) and No Baculosomes), and known inhibitors (Table 4) were diluted to 10% ACN or DMSO in water at appropriate concentrations."}, "[4]": {"molecular_target": "CYP2D6 (Homo sapiens, UniProt P10635)", "experiment": "in vitro", "from_the_text": "as §1, §2, §3, §4"}, "[5]": {"molecular_target": "CYP2C9 (Homo sapiens, UniProt P11712)", "experiment": "in vitro", "from_the_text": "as §1, §2, §3, §4"}, "[6]": {"molecular_target": "PC12 (Nav1.2) (Rattus norvegicus, UniProt P04775)"}, "[7]": {"tested_on": "SH-SY5Y (NaV1.9 and NaV1.7)", "assay_type": "cell-based, Human"}, "[8]": {"molecular_target": "SK-N-BE2C (NaV1.8) (Homo sapiens, UniProt Q9Y5Y9)", "sequence (Q9Y5Y9 whole entry, looked up)": "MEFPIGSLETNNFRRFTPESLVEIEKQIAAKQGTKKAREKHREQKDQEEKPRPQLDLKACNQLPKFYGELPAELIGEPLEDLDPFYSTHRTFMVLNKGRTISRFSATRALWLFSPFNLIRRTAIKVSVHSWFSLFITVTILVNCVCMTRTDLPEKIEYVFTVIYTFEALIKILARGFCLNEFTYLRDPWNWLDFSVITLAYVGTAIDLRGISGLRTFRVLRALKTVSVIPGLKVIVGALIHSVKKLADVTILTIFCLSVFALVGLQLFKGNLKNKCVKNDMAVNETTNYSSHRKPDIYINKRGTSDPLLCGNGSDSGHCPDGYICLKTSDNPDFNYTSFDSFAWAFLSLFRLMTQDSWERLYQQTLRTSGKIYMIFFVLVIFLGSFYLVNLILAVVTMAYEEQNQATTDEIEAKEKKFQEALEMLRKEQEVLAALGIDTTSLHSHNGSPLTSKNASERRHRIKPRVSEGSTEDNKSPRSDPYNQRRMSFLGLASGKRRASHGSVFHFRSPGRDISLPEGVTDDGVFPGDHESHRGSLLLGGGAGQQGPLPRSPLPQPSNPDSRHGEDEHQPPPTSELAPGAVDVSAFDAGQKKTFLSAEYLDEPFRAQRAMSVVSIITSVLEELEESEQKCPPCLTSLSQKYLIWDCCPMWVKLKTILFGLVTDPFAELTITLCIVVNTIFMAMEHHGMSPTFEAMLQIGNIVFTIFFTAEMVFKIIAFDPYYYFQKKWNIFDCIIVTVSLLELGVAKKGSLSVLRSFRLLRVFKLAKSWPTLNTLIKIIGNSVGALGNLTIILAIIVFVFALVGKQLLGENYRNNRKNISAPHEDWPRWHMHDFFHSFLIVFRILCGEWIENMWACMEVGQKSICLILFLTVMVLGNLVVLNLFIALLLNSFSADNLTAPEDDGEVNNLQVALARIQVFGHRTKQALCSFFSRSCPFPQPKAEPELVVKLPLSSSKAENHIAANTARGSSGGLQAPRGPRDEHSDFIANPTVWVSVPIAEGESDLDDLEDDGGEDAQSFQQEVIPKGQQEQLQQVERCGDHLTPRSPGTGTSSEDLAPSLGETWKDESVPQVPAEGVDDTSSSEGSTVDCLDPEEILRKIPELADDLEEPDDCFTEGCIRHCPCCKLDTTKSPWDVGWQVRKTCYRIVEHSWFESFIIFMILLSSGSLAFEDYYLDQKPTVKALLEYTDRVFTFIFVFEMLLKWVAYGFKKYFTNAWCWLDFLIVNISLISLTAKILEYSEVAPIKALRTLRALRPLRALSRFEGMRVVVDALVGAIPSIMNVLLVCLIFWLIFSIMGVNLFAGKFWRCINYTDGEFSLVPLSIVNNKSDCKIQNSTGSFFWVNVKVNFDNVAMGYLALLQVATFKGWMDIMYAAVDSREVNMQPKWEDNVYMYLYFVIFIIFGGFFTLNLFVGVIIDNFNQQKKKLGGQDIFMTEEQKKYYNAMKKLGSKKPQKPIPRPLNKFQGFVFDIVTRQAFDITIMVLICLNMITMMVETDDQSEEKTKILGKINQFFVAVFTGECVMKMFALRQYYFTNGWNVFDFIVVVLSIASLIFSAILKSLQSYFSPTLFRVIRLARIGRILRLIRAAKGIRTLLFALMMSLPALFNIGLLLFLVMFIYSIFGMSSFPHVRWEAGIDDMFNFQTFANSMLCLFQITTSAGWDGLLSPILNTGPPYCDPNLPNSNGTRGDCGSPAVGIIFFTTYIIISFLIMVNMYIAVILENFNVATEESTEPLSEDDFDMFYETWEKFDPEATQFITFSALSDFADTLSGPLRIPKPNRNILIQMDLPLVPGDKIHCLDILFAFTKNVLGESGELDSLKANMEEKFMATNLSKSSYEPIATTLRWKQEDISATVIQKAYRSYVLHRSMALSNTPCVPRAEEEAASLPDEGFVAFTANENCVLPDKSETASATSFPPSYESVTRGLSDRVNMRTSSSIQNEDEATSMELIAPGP", "assay_type": "cell-based"}, "[9]": {"tested_on": "L6 (Nav1.4 and 1.5)", "assay_type": "cell-based, rat"}, "[10]": {"tested_on": "CHO-K1 (NaV1.4)", "sequence (A0A9J7H6F9 1-1930)": "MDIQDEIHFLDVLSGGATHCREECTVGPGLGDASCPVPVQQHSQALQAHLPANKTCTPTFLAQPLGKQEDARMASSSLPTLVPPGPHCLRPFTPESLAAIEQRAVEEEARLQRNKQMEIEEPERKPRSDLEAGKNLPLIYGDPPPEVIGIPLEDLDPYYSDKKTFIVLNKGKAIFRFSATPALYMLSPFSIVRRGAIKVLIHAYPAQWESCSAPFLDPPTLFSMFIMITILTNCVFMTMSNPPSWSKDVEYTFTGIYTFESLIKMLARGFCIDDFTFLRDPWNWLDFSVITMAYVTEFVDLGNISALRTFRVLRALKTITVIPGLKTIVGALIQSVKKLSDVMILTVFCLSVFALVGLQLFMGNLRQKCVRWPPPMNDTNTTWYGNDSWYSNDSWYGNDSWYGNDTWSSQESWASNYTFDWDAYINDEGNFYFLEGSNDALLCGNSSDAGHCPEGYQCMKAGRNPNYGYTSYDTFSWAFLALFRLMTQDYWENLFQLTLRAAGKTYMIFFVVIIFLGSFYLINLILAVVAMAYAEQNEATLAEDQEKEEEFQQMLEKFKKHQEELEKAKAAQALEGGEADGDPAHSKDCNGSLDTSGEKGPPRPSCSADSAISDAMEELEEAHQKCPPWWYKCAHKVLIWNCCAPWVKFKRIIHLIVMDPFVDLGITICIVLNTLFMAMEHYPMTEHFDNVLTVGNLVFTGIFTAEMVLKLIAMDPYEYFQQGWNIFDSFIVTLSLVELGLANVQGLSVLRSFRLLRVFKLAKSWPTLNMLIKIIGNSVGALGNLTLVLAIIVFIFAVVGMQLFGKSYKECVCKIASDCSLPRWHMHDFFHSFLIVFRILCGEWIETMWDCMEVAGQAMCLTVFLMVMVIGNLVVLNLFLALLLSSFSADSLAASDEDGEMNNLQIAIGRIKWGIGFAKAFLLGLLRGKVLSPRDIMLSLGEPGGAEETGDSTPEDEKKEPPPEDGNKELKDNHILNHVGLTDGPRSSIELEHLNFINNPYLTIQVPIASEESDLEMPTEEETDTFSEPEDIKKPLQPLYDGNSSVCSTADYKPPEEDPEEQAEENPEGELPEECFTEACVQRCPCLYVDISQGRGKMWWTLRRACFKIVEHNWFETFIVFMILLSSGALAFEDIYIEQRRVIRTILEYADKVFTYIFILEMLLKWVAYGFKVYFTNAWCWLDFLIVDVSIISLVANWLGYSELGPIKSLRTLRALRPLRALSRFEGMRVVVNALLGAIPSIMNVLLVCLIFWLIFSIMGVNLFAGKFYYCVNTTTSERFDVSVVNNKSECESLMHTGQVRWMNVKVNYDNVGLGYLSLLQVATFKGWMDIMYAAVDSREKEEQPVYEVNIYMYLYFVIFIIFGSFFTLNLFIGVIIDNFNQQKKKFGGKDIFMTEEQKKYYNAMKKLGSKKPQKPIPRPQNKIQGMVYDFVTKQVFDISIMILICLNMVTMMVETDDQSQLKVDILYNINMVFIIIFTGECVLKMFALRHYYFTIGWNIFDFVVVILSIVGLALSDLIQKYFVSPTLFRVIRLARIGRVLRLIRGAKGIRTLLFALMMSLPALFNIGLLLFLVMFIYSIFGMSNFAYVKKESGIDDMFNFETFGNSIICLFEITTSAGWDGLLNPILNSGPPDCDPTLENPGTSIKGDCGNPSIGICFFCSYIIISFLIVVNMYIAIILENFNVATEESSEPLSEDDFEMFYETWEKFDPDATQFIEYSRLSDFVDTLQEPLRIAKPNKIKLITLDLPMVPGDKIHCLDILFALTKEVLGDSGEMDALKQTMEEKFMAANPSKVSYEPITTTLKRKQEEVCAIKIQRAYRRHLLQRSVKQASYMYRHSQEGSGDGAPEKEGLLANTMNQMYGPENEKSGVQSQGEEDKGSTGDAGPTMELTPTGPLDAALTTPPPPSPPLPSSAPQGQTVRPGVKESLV", "assay_type": "cell-based, Chinese Hamster"}}}
{"smiles": "COc1ccc2c(n1)C1(CO2)C(=O)N(C[C@H]2CCCO2)c2cccc(Br)c21", "note": "(stereo partly drawn) [Example 1, 4′-bromo-5-methoxy-1′-[(2R)-tetrahydrofuran-2-ylmethyl]spiro[furo[3,2-b]pyridine-3,3′-indol]-2′(1′H)-one]", "values": [{"measurement": "melting point", "value": "110 to 112", "unit": "°C"}, {"measurement": "IC50", "setting": "[1]", "value": "100 to 1000", "unit": "nM"}, {"measurement": "inhibition at 10 µM", "setting": "[2]", "value": "< 50", "unit": "%"}]}
{"smiles": "COc1ccc2c(n1)C1(CO2)C(=O)N(C[C@H]2CCCO2)c2ccccc21", "note": "(stereo partly drawn) [Example 2, 5-methoxy-1′-[(2R)-tetrahydrofuran-2-ylmethyl]spiro[furo[3,2-b]pyridine-3,3′-indol]-2′(1′H)-one]", "values": [{"measurement": "melting point", "value": "52 to 56", "unit": "°C"}]}
{"smiles": "COc1ccc2c(n1)C1(CO2)C(=O)N(Cc2ccc3c(c2)OCCO3)c2ccccc21", "note": "(stereo not drawn) [Example 3, 1′-(2,3-dihydro-1,4-benzodioxin-6-ylmethyl)-5-methoxyspiro[furo[3,2-b]pyridine-3,3′-indol]-2′(1′H)-one]", "values": [{"measurement": "melting point", "value": "144 to 146", "unit": "°C"}, {"measurement": "IC50", "setting": "[1]", "value": "1 to 100", "unit": "nM"}]}
{"smiles": "O=C1N(C[C@H]2CCCO2)c2ccccc2C12COc1c[nH]c(=O)cc12", "note": "(stereo partly drawn) [Example 4, 1′-[(2R)-tetrahydrofuran-2-ylmethyl]spiro[furo[2,3-c]pyridine-3,3′-indole]-2′,5(1′H,6H)-dione]", "values": [{"measurement": "melting point", "value": "> 250", "unit": "°C"}, {"measurement": "IC50", "setting": "[1]", "value": "1000 to 10000", "unit": "nM"}, {"measurement": "inhibition at 10 µM", "setting": "[2]", "value": "< 50", "unit": "%"}]}
{"smiles": "O=C1Nc2ncccc2C12COc1cc3c(cc12)OCCO3", "note": "(stereo not drawn) [Example 6, 2,3-dihydrospiro[furo[2,3-g][1,4]benzodioxine-8,3′-pyrrolo[2,3-b]pyridin]-2′(1′H)-one]", "values": [{"measurement": "melting point", "value": "> 250", "unit": "°C"}, {"measurement": "IC50", "setting": "[1]", "value": "100 to 1000", "unit": "nM"}, {"measurement": "inhibition at 10 µM", "setting": "[2]", "value": "< 50", "unit": "%"}]}
{"smiles": "O=C1N(Cc2ccccn2)c2ncccc2C12COc1cc3c(cc12)OCCO3", "note": "(stereo not drawn) [Example 7, 1′-(pyridin-2-ylmethyl)-2,3-dihydrospiro[furo[2,3-g][1,4]benzodioxine-8,3′-pyrrolo[2,3-b]pyridin]-2′(1′H)-one]", "values": [{"measurement": "IC50", "setting": "[1]", "value": "1 to 100", "unit": "nM"}, {"measurement": "inhibition at 10 µM", "setting": "[2]", "value": "< 50", "unit": "%"}]}
{"smiles": "O=C1N(Cc2ncccc2C(F)(F)F)c2ncccc2C12COc1cc3c(cc12)OCCO3", "note": "(stereo not drawn) [Example 8, 1′-{[3-(trifluoromethyl)pyridin-2-yl]methyl}-2,3-dihydrospiro[furo[2,3-g][1,4]benzodioxine-8,3′-pyrrolo[2,3-b]pyridin]-2′(1′H)-one]", "values": [{"measurement": "IC50", "setting": "[1]", "value": "100 to 1000", "unit": "nM"}, {"measurement": "inhibition at 10 µM", "setting": "[2]", "value": "< 50", "unit": "%"}]}
{"smiles": "O=C1Nc2cccnc2C12COc1cc3c(cc12)OCCO3", "note": "(stereo not drawn) [Example 10, 2,3-dihydrospiro[furo[2,3-g][1,4]benzodioxine-8,3′-pyrrolo[3,2-b]pyridin]-2′(1′H)-one]", "values": [{"measurement": "melting point", "value": "> 250", "unit": "°C"}, {"measurement": "IC50", "setting": "[1]", "value": "1000 to 10000", "unit": "nM"}, {"measurement": "inhibition at 10 µM", "setting": "[2]", "value": "< 50", "unit": "%"}]}
{"smiles": "O=C1N(Cc2ccccn2)c2cccnc2C12COc1cc3c(cc12)OCCO3", "note": "(stereo not drawn) [Example 11, 1′-(pyridin-2-ylmethyl)-2,3-dihydrospiro[furo[2,3-g][1,4]benzodioxine-8,3′-pyrrolo[3,2-b]pyridin]-2′(1′H)-one]", "values": [{"measurement": "melting point", "value": "146 to 147", "unit": "°C"}, {"measurement": "IC50", "setting": "[1]", "value": "100 to 1000", "unit": "nM"}, {"measurement": "inhibition at 10 µM", "setting": "[2]", "value": "< 50", "unit": "%"}]}
{"smiles": "O=C1N(Cc2ncccc2C(F)(F)F)c2cccnc2C12COc1cc3c(cc12)OCCO3", "note": "(stereo not drawn) [Example 12, 1′-{[3-(trifluoromethyl)pyridin-2-yl]methyl}-2,3-dihydrospiro[furo[2,3-g][1,4]benzodioxine-8,3′-pyrrolo[3,2-b]pyridin]-2′(1′H)-one]", "values": [{"measurement": "melting point", "value": "> 250", "unit": "°C"}, {"measurement": "IC50", "setting": "[1]", "value": "100 to 1000", "unit": "nM"}, {"measurement": "inhibition at 10 µM", "setting": "[2]", "value": "< 50", "unit": "%"}]}
{"smiles": "COc1ccc2c(n1)C1(CO2)C(=O)N(Cc2ncccc2C(F)(F)F)c2ccccc21", "note": "(stereo not drawn) [Example 13, 5-methoxy-1′-{[3-(trifluoromethyl)pyridin-2-yl]methyl}spiro[furo[3,2-b]pyridine-3,3′-indol]-2′(1′H)-one]", "values": [{"measurement": "melting point", "value": "195 to 198", "unit": "°C"}, {"measurement": "IC50", "setting": "[1]", "value": "100 to 1000", "unit": "nM"}, {"measurement": "inhibition at 10 µM", "setting": "[2]", "value": "< 50", "unit": "%"}]}
{"smiles": "CC(=O)N1CCN(c2ccc(OCC3COC(Cn4ccnc4)(c4ccc(Cl)cc4Cl)O3)cc2)CC1", "note": "(stereo not drawn) [Ketoconazole]", "values": [{"measurement": "inhibition at 7.62 µM", "setting": "[3]", "value": 65, "unit": "%"}]}
{"smiles": "C=C[C@H]1C[N@@]2CC[C@H]1C[C@@H]2[C@@H](O)c1ccnc2ccc(OC)cc12", "note": "[Quinidine]", "values": [{"measurement": "inhibition at 0.0137 µM", "setting": "[4]", "value": 55, "unit": "%"}]}
{"smiles": "Nc1ccc(S(=O)(=O)Nc2ccnn2-c2ccccc2)cc1", "note": "[Sulfaphenazole]", "values": [{"measurement": "inhibition at 0.42 µM", "setting": "[5]", "value": 50, "unit": "%"}]}
{"smiles": "NC1=N[C@H](O)[C@H]2[C@H]3O[C@]4(O)O[C@@H]([C@@H](O)[C@@]2(N1)[C@@H]4O)[C@]3(O)CO", "note": "[TTX, tetrodotoxin]", "values": [{"measurement": "block of the increase in [14C] guanidine influx", "setting": "[6]", "value": "guanidine influx was completely"}, {"measurement": "block of the increase in [14C] guanidine influx", "setting": "[7]", "value": "background was partially blocked"}, {"measurement": "block of the increase in [14C] guanidine influx", "setting": "[8]", "value": "TTX partially blocked influx"}, {"measurement": "block of the increase in [14C] guanidine influx", "setting": "[9]", "value": "partially blocked by TTX at 100"}, {"measurement": "block of the increase in [14C] guanidine influx", "setting": "[10]", "value": "completely blocked using TTX."}]}
